Legend:
[1] = Single helix conformation content by high-resolution 13C-NMR of hydrated solid sample; format: physicochemical; settings: for Single helix conformation % retention after one month: aqueous solution or suspension stored aseptically at 4° C. for 1 month, versus initial value; for Single helix conformation content in hydrated solid sample: immediately after synthesis, 13C-NMR
Description: Each sample was deprived of water by lyophilization and then maintained in saturated water vapor, and the hydrated solid sample obtained was subjected to high-resolution ^13 C-NMR spectrometry. The single helix conformation content in the (1→3)-β-D-glucan in the sample was calculated by comparing the chemical shift peak heights for each carbon atom with the peak heights of the chemical shifts shown in Table 1 for other higher-order structure carbon atoms.
The single helix conformation contents thus obtained from the chemical shifts of C-2, C-3 and C-5 and the respective peak heights are shown in Table 2.
Furthermore, aqueous solutions or suspensions were stored in aseptic condition at 4° C. for 1 month and then tested for single helix conformation content in the same manner. The data obtained were compared with the initial values and the rates of retention of the respective single helix conformations contained were calculated. The uncrosslinked, single helix conformation schizophyllan, when subjected to solid-phase ^13 C-NMR spectrometry immediately after formation of said conformation, gave a single helix conformation content of 60% but, after one-month storage, the content of said structure was only 6% (10% retention). This is due to advanced transformation from the single helix conformation to other higher-order structures.

Sarcoma 180 cells = assay: Tumor inhibition rate, Sarcoma 180 transplanted subcutaneously in mice; format: in vivo, CLJ-ICR female mice; settings: intraperitoneal, 10 times (days 1-5 and 7-11), tumor weight on day 13 versus untreated control; for % Tumor inhibition, after one month: sample administered after one month storage at 4° C.; for % Tumor inhibition, initial: sample administered immediately after preparation
Description: Sarcoma 180 cells (5×10^6 cells) were transplanted subcutaneously into the groin of each of 6-week-old CLJ-ICR female mice weighing about 25 g. The intramolecularly crosslinked, single helix conformation (1→3)-β-D-glucans of the invention as obtained in Examples 1-10 and the uncrosslinked, single helix conformation schizophyllan of Comparative Example were respectively administered to the mice at 24 hours after transplantation (day 1) and thereafter once daily on days 1-5 and 7-11 (10 times in total). Thus, each sample was comminuted in a mortar, suspended or dissolved in physiological saline for injection, sterilized in an autoclave at 121° C. for 20 minutes, and then intraperitoneally administered. In a control group, no glucan was given to mice.
On day 13, tumor nodules were excised and weighed, and their weights were compared with the tumor weight in the untreated control group for calculating tumor inhibition rates.
In the above test, sample solutions or suspensions were administered immediately after preparation on one hand and, on the other, the solutions or suspensions were administered after one month storage at 4° C.

[2] = tested on: Horseshoe crab lysate factor G; assay: Factor G activating ability (pNA release from Boc-Leu-Gly-Arg-pNA); format: biochemical; settings: for % Retention of factor G activating ability after one month: aqueous solution or suspension stored one month at 4° C., versus initial value
Description: For each sample to be tested, a reaction mixture (200 μl) containing the sample, water and the ingredients mentioned below was prepared. […]
This reaction mixture was incubated at 37° C. for 30 minutes and, then, p-nitroaniline (pNA) liberated was quantitated. Thus, to the sample after incubation were added 0.5 ml each of 0.04% sodium nitrite (solution in 0.48M hydrochloric acid), 0.3% ammonium sulfamate and 0.07% N-1-naphthylethylenediamine dihydrichloride in that order for causing a change in color tone due to diazo coupling, and the absorbance at 545 nm (A545) was determined.
This measurement was performed for an aqueous solution or suspension of each substance immediately after synthesis thereof. The same measurement was also performed after one month storage of the sample at 4° C., the minimum concentration (C, g/ml) at which the absorbance at 545 nm amounted to 0.1 was determined, and the factor G activating ability was expressed in terms of -log C (g/ml) value. By comparing this value with the initial value, the rate of retention of factor G activating ability was calculated.

Substance | Single helix conformation % retention after one month [1] | Single helix conformation content in hydrated solid sample [1] | % Tumor inhibition, after one month (Sarcoma 180 cells) | % Tumor inhibition, initial (Sarcoma 180 cells) | % Retention of factor G activating ability after one month [2] | Initial factor G activating ability, -log C (minimum concentration at which A545 amounted to 0.1) ([2]; immediately after synthesis, 37° C., 30 minutes)
2,3,4-Trihydroxyadipodialdehyde-crosslinked hydrazinocurdlan [Example 3] | 80% | 70% | 92.1% | 100% | 20% | –
2,3,4-Trihydroxyadipodihydrazide-crosslinked aldehyde schizophyllan [Example 6] | 90% | 70% | 96.1% | 100% | 30% | –
Dodecamethylenediamine-crosslinked aldehyde schizophyllan [Example 4] | 100% | 75% | 98.4% | 100% | 100% | –
Glutardialdehyde-crosslinked hydrazino yeast glucan [Example 9] | 53% | 23% | 73.0% | 90.0% | 20% | –
Glutardialdehyde-crosslinked hydrazinocurdlan (no receptor added) [Example 1] | 60% | 70% | 70.0% | 98.0% | 10% | 11 -log C (g/ml)
Glutardialdehyde-crosslinked hydrazinocurdlan [Example 2] | 70% | 65% | 91.1% | 98.2% | 20% | –
Glutardialdehyde-crosslinked hydrazinolentinan [Example 10] | 52% | 35% | 80.0% | 96.0% | 20% | –
Glutardialdehyde-crosslinked hydrazinoschizophyllan [Example 7] | 80% | 70% | 95.0% | 100% | 25% | –
Hexamethylenedihydrazine-crosslinked carboxymethylated curdlan [Example 8] | 70% | 60% | 75.3% | 98.2% | 10% | –
Pimelic acid-crosslinked hydrazinoschizophyllan [Example 5] | 60% | 55% | 65.6% | 95.3% | 10% | –
